The values that follow come from patent publication US8466311B2, “Neuroprotective compositions and methods” (Sanford-Burnham Medical Research Institute, priority 2006, dated 2013).

This series in a line: Translocation of CA into the brain (HPLC of serum and brain). The class given is in vivo, mouse. How it is done: Translocation of CA into the brain detected by high-performance liquid chromatography (HPLC). For experiments testing penetration of drug into the CNS, we used adult male C57BL/6 mice (Charles River) weighing 22-26 g. The mice were kept in cages with ad libitum access to food and water under standardized housing conditions (natural light-dark cycle, temperature of 23±3° C., relative humidity of 50±10%). After a seven-day adaptation to laboratory conditions, the animals were randomly assigned to each experimental group (n=10 mice each). Four C57 BL/6 mice, fastened for 18 h, were each orally administered 3 mg of CA in 0.3 ml olive oil. One and three h after the injection, under ether anesthesia, serum and brain were isolated for chemical analysis. CA was extracted from tissue with acetonitrile and ethanol. CA levels were obtained by HPLC (column, μBondasphere C18; temperature, 40 C; HPLC system, Shimadzu [Kyoto, Japan] LC10Avp; detector, UV 230 nm; running solvent 2% acetic acid or acetonitrile, 30% B isocratic at 1 ml/min).
CA accumulation in the brain. For the development of CA as a protective agent against neurodegenerative diseases, penetration into the brain is an essential requirement. To examine this aspect, we administered CA orally to mice (3 mg per 25 g mouse) and measured the level of CA (catechol-form) in serum and brain parenchyma by HPLC.

For the compound `CC(C)c1cc2c(c(O)c1O)[C@@]1(C(=O)O)CCCC(C)(C)[C@@H]1CC2` [CA, carnosic acid], the brain permeability result (mouse, in vivo) is on record as “brain permeable”. Further, where the note is “oral, 3 mg per 25 g mouse”, the “time to reach significant levels in the brain” value is at most 1 h.
